Laboratory results published in patent US12521419B2, “Use of anti-aging glycopeptides to enhance pancreatic cell health, survival and improve transplant outcome” (Protokinetix Inc., priority 2014, dated 2026).

Columns and labels:
human islets [1] = experiment: Viability by fluorescent membrane integrity assay (syto green/ethidium bromide); assay type: cell-based; details: 24 h ± AAGP then 24 hr tacrolimus 10 ng/mL
Procedure: After 24 hr of culture, islets are assessed for recovery, viability and function. Recovery rate is calculated as the percentage of surviving islets after 24 hr culture in comparison to the initial count for each condition. Viability is assessed using a fluorescent membrane integrity assay with counter-stains syto green/ethidium bromide (Cedarlane Laboratories, Burlington, ON, and Sigma-Aldrich, ON) (Islet isolation for clinical transplantation. In: Shahidul. M, (ed). The islets of Langerhans. New York: Springer, 2010; Ranuncoli A, et al. Cell transplantation 2000; 9(3):409-414; Ricordi C. et al. Acta diabetologica latina 1990; 27(3):185-195; and Barnett M J et al. Cell transplantation 2004; 13(5):481-488).

human islets [2] = experiment: Glucose-stimulated insulin secretion (GSIS) perifusion assay; assay type: cell-based; details: 24 h ± AAGP then 24 hr tacrolimus 10 ng/mL; Tac− 158.8
Procedure: Islet secretory function is assessed by monitoring in vitro insulin secretory profile during continuous glucose stimulation, as described by Cabrera et al Cell transplantation 2008;16(10):1039-1048. This in vitro perifusion assay is a modality of continuous Glucose-Stimulated Insulin Secretion (GSIS) test to stress islets in alternating normoglycemic and hyperglycemic environment to model physiological islet response. Supernatants from the perifusion assay are collected and insulin levels are determined using a commercially available ELISA kit (Insulin ELISA kit. Mercodia Inc. Pittsburgh, PA, USA). Results are expressed as fold-change of insulin secretion compared to the low (2.8 mMol) glucose stimulation baseline, normalized for 100 IEQ.

human islets [3] = experiment: Extracellular ROS in culture media, Acridan Lumigen PS-3 assay; assay type: cell-based; details: media 24 hr after tacrolimus exposure, ± AAGP
Procedure: Frozen samples from all groups are utilized to determine reactive oxygen species (ROS) in the culture media, using the Acridan Lumigen™ PS-3 assay (Amershan ECL Plus kit, Fisher Scientific Inc. Ottawa, ON, Canada) (18). In this assay Acridan Lumigen™ PS-3 is excited by reactive oxygen and nitrogen species (RNS) in the presence of hydrogen peroxide, producing chemiluminescense at 430 nm. Media samples are flash-frozen with liquid nitrogen and stored until the assay is performed. CMRL culture media alone is used as a control, and results are expressed as fold-change increase compared to the control media.

human islets [4] = experiment: Intra-islet calcium concentration; assay type: cell-based; details: Tac−, Tac+AAGP groups
Procedure: Various electrophysiology studies were performed on human islets to elucidate a potential mechanism of action for the AAGP™ by characterizing the CNI-related injury and its avoidance.

human islets [5] = experiment: Capacitance measurement as indicator of exocytosis upon high glucose stimulation; assay type: cell-based
Procedure: Complementary capacitance studies were performed with these same conditions as an indirect indicator of exocytosis upon high glucose stimulation.

[6] = tested on: human islets transplanted under the kidney capsule; experiment: Proinflammatory cytokines and chemokines in homogenized graft 24 h post-transplant; assay type: in vivo, immunodeficient mice; details: 24 h after transplant, 1,000 IEQ, islets cultured with tacrolimus ± AAGP, n=3
Procedure: After 24 hr exposure to tacrolimus, samples from culture media of all groups are frozen and relevant cytokines and chemokines (IFN-γ, IL-1β, IL-6, IL-10, IL-12, Keratinocyte-derived Chemokine (KC), and TNF-α) are measured using a Multi-Spot Human ProInflammatory 7-Plex Ultra-Sensitive kit (Meso Scale Discovery®, Gaithersburg, MD, USA), analyzed on the SECTOR™ Imager (Meso Scale Discovery®, Gaithersburg, MD, USA). Results are expressed as absolute values (pg/mL), and CMRL culture media alone is used as a control for comparison.
Eight to 12 week immunodeficient mice (B6.129S7-Rag1^tm1Mom) are obtained from the Jackson Laboratory (Bar Harbor, ME, USA) and housed under specific pathogen-free conditions with access to food and water ad libitum. Animals are cared for according to the guidelines of the Canadian Council on Animal Care, and ethical approval is obtained from the animal welfare committee at the University of Alberta.
Animals are considered diabetic after two consecutive blood glucose measurements are documented≥18 mmol/L.
Ten animals per group received approximately 1,000 IEQ human islets transplanted under the capsule of the left kidney as described previously (19).
Three mice per group underwent nephrectomy and are euthanized 24 hr post-transplant to perform acute determination of proinflammatory cytokines, cleaved capase-3 and TUNEL in the graft area. In all cases the islet graft is excised from the kidney, weighed, flash frozen in liquid nitrogen and stored at −80° C. Tissue samples are subsequently lysed using 1 ml of lysis buffer (0.15 M NaCl, 1 mM Tris-HCL, 0.1% SDS, 0.1% Triton X-100, 20 mM Sodium deoxycholate, 5 mM EDTA) per 200 mg of tissue. Lysates are then homogenized (PowerGen, Fisher Scientific, ON, Canada) on ice for 30 sec×2 replications, and sonicated (VirSonic, VirTis, NY, USA) with 10 quick pulses while on ice. Cellular debris is pelleted by centrifugation at 14,000 rpm for 10 min at 4° C. and the resulting supernatant is collected and placed in a microcentrifuge tube containing 10 μl of a protease inhibitor cocktail (Sigma-Aldrich Canada Co., Oakville, ON, Canada) per 1 ml of lysate (1:100).
Graft samples are assayed (using the corresponding mouse kit) for pro-inflammatory cytokines/chemokines, caspase-3 and TUNEL staining, as previously described. All determinations are adjusted per gram of tissue.
Further in vivo testing is performed to complement our in vitro findings. Using the same study groups (Tac−, Tac+ and Tac+AAGP™) minimal mass (1,000 IEQ) islet transplants are performed in chemically-induced diabetic immunodeficient mice (n=10 per group). […]

Q: `C=CC[C@@H]1/C=C(\C)C[C@H](C)C[C@H](OC)[C@H]2O[C@@](O)(C(=O)C(=O)N3CCCC[C@H]3C(=O)O[C@H](/C(C)=C/[C@@H]3CC[C@@H](O)[C@H](OC)C3)[C@H](C)[C@@H](O)CC1=O)[C@H](C)C[C@@H]2OC.O` [Tac+, tacrolimus] was tested. Which “cell viability by membrane integrity stain” value (human islets [1]) did it give?
A: The value was “no difference in cell viability”.

Q: And the “GSIS perifusion AUC” value (human islets [2])?
A: The value was 8.22.

Q: What about the “extracellular ROS (fold-increase vs control media)” value (human islets [3]) of the same compound?
A: Its value is “substantial increase in ROS”.

Q: What about the “calcium concentration in islets” value (human islets [4]) of the same compound?
A: The value was “neither tacrolimus nor AAGP™ affected the calcium concentration”.

Q: What about the “cumulative capacitance area under the curve” value (human islets [5]) of the same compound?
A: Its value is 39.08.

Q: And the “IL-1β level in graft” value [6]?
A: Its value is 17.81 pg/mL/g-tissue.

Q: What about the “IL-6 level in graft” value [6] of the same compound?
A: The value was 147.8 pg/mL/g-tissue.

Q: And the “KC (keratinocyte chemokine) level in graft” value [6]?
A: Its value is 9.79 pg/mL/g-tissue.

Q: And the “TNF-α level in graft” value [6]?
A: The value was 1.63 pg/mL/g-tissue.
